Assay results from ChEMBL document CHEMBL3271966, “beta-Adrenergic blocking agents. 17. 1-Phenoxy-3-phenoxyalkylamino-2-propanols and 1-alkoxyalkylamino-3-phenoxy-2-propanols” (J Med Chem, 1977).
Active and inactive are the calls of the source. The calls are words filed in the database; no cut-off is given here.

Key:
Felis catus [1] = assay: Inhibition of isoproterenol-induced vasodepressor response in anesthetized cat compound administered as an infusion over a period of 30 mins; type: organism-based; conditions: in vivo, iv, 0.5 h
Felis catus [2] = assay: Inhibition of isoproterenol-induced tachycardia in anesthetized cat compound administered as an infusion over a period of 30 mins; type: functional

Structure (SMILES)	inhibition (INH) (Felis catus [1]) [%]	ED50 (Felis catus [2]; 0.5 h) [mg/kg]	ED50 (Felis catus [2])
Cc1cccc(OCCNCC(O)COc2ccccc2)c1.Cl (configuration not stated)	29	0.116	–
COCCNCC(O)COc1ccccc1[N+](=O)[O-] (configuration not stated)	29	0.293	–
Cl.OC(CNCCCOc1ccccc1)COc1ccccc1 (configuration not stated)	0	0.239	–
CCOCCCNCC(O)COc1ccccc1[N+](=O)[O-].O=C(O)C(=O)O (configuration not stated)	0	0.566	–
OC(CNCCOc1cccc(Cl)c1)COc1ccccc1 (configuration not stated)	36	0.375	–
CCOCCCNCC(O)COc1ccccc1 (configuration not stated)	0	0.066	–
Cc1ccccc1OCCNCC(O)COc1ccccc1 (configuration not stated)	0	0.031	–
OC(CNCCOc1ccc(F)cc1)COc1ccccc1 (configuration not stated)	58	0.029	–
COCCNCC(O)COc1ccc(Cl)cc1 (configuration not stated)	–	–	inactive
COc1ccccc1OC(C)CNCC(O)COc1ccccc1.O=C(O)C(=O)O (configuration not stated)	0	0.014	–
Cc1ccccc1OCC(O)CNCCOc1ccc(C(N)=O)cc1 (configuration not stated) [TOLAMOLOL]	81	0.133	–
COc1ccc(OCCNCC(O)COc2ccccc2)cc1 (configuration not stated)	0	0.064	–
COCCNCC(O)COc1cccc2ccccc12 (configuration not stated)	–	–	inactive
OC(CNCCOc1ccccc1F)COc1ccccc1 (configuration not stated)	0	0.081	–
COCCNCC(O)COc1ccc(O)cc1 (configuration not stated)	0	0.118	–
OC(CNCCOc1ccccc1)COc1ccccc1Br (configuration not stated)	0	0.3	–
Cc1ccccc1OCC(O)CNCCOc1ccccc1.Cl (configuration not stated)	12	0.284	–
COc1ccccc1OCCNCC(O)COc1ccccc1OC.O=C(O)C(=O)O (configuration not stated)	60	0.539	–
CC(CNCC(O)COc1ccccc1)Oc1ccccc1 (configuration not stated)	0	0.051	–
COc1cccc(OC)c1OCCNCC(O)COc1ccccc1.O=C(O)C(=O)O (configuration not stated)	0	2.26	–
Cc1ccc(OCCNCC(O)COc2ccccc2)cc1 (configuration not stated)	0	0.179	–
O=C(O)C(=O)O.OC(CNCCOc1ccccc1)COc1ccccc1Cl (configuration not stated)	38	1.11	–

Structure (SMILES)	inhibition (INH) (Felis catus [1]) [%]	ED50 (Felis catus [2]; 0.5 h) [mg/kg]	ED50 (Felis catus [2])
COc1ccccc1OCC(O)CNCCOc1ccccc1.O=C(O)C(=O)O (configuration not stated)	0	0.527	–
Oc1ccc(OCC(O)CNCCOc2ccccc2)cc1 (configuration not stated)	78	0.031	–
C=CCc1ccccc1OCCNCC(O)COc1ccccc1.O=C(O)C(=O)O (configuration not stated)	33	0.75	–
Cl.OC(CNCCOc1cccc2ccccc12)COc1ccccc1 (configuration not stated)	0	0.231	–
OC(CNCCOc1ccccc1)COc1ccc(OCc2ccccc2)cc1 (configuration not stated)	–	–	inactive
COc1ccccc1OCCCNCC(O)COc1ccccc1.O=C(O)C(=O)O (configuration not stated)	15	0.721	–
CC(C)OCCNCC(O)COc1ccccc1[N+](=O)[O-].O=C(O)C(=O)O (configuration not stated)	0	0.195	–
O=C(O)C(=O)O.OC(CNCCOc1ccccc1Cl)COc1ccccc1 (configuration not stated)	71	0.821	–
Cc1cccc(Cl)c1OCCNCC(O)COc1ccccc1.O=C(O)C(=O)O (configuration not stated)	79	0.09	–
Cc1cccc(OCC(O)CNCCOc2ccccc2)c1.Cl (configuration not stated)	33	1.76	–
CCCc1ccccc1OCCNCC(O)COc1ccccc1.O=C(O)C(=O)O (configuration not stated)	0	0.833	–
OC(CNCCOc1ccc(Cl)cc1)COc1ccccc1 (configuration not stated)	0	0.08	–
CCOCCNCC(O)COc1ccccc1 (configuration not stated)	10	0.047	–
Cl.Oc1ccccc1OCCNCC(O)COc1ccccc1 (configuration not stated)	0	0.022	–
COc1ccccc1OCCNCC(O)COc1ccccc1 (configuration not stated)	0	0.063	–
OC(CNCCOc1ccc(OCc2ccccc2)cc1)COc1ccccc1 (configuration not stated)	0	0.534	–
O=C(O)C(=O)O.OC(CNCCOc1c(Cl)cccc1Cl)COc1ccccc1 (configuration not stated)	11	0.402	–
COCCNCC(O)COc1ccccc1 (configuration not stated)	0	0.13	–
COCCNCC(O)COc1ccccc1C#N (configuration not stated)	0	0.198	–
OC(CNCCOc1ccccc1)COc1ccccc1 (configuration not stated)	0	0.054	–
Cc1ccc(OCC(O)CNCCOc2ccccc2)cc1 (configuration not stated)	–	–	inactive
